Laboratory results reported in patent US8569336B2, “Compounds for the treatment of inflammatory disorders” (priority 2008, dated 2013).
Like-named read-outs stand apart in the source and are kept apart here.

What was measured:
[1] = target: T1, purified catalytic domain of recombinant human TACE (rhTACEc) (Homo sapiens, UniProt P78536, N452Q/S266A); assay: TACE kinetic assay: cleavage of internally quenched peptide substrate TNF-FRET 2 (Ki); format: biochemical; details: TNF-FRET 2 substrate
T1 construct: 6xHis (C); made in house; host or cells: baculovirus/Hi5 insect cells

[2] = test system: TNF-α production from human whole blood; assay: Inhibition of TNF-α production from human whole blood (hWBA), LPS stimulated, ELISA; format: cell-based; details: Homo sapiens, TNF-α by ELISA, read-out: hWBA (IC50)
[3] = LPS-stimulated human whole blood
[4] = human whole blood diluted 1:1, LPS stimulated
[5] = 3.5 h, human whole blood diluted 1:1, LPS stimulated, 3.5 h

T1 sequence (P78536 215-477 S266A/N452Q): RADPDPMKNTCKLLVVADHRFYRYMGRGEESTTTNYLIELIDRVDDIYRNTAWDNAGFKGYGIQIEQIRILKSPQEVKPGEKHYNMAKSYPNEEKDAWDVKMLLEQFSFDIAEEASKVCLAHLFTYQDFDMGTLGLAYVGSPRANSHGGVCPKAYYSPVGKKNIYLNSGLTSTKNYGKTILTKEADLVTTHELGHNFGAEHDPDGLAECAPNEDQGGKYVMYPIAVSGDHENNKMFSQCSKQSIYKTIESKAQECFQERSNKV

Row | SMILES | Ki ([1]; read-out: Ki) [nM] | IC50 [2, 3] [nM] | IC50 [2, 4] [nM] | IC50 [2, 5] [nM] | Ki ([1]; Ki) [nM]
1 | CCN1CCCN(c2ccc3oc([C@]4(CN5Cc6ccc(OC)c(F)c6C5=O)NC(=O)NC4=O)cc3n2)CC1 [Compound 1727] | 0.048 | 154 | – | – | –
2 | COc1ccc2c(c1)C(=O)N(C[C@@]1(c3cc4cc(/C=N/O)ccc4o3)NC(=O)NC1=O)C2 [Compound 2420] | 0.4 | – | 328 | – | –
3 | COc1ccc2c(c1)C(=O)N(C[C@@]1(c3cc4nc(Nc5nccc(O)n5)ccc4o3)NC(=O)NC1=O)C2 [Compound 2144] | 0.194 | – | – | 267 | –
4 | COc1ccc2c(c1)C(=O)N(C[C@@]1(c3cc4cc(CN(C)C)ccc4o3)NC(=O)NC1=O)C2 [Compound 2176] | 0.267 | – | – | 1040 | –
5 | COc1ccc2c(c1)C(=O)N(C[C@@]1(c3cc4c(C)ncc(C(=O)O)c4o3)NC(=O)NC1=O)C2 [Compound 2446] | 2.26 | – | 1600 | – | –
6 | COc1ccc2c(c1)C(=O)N(C[C@@]1(c3cc4cc(C(=O)N5CCC(N(C)C)CC5)c(F)cc4o3)NC(=O)NC1=O)C2 [Compound 1277] | 0.62 | – | – | 471 | –
7 | COc1ccc2c(c1)C(=O)N(C[C@@]1(c3cc4cc(C(=O)NCCN(C)C)ccc4o3)NC(=O)NC1=O)C2 [Compound 2428] | 0.75 | – | 115 | – | –
8 | COc1ccc2c(c1)C(=O)N(C[C@@]1(c3cc4cc5c(cc4o3)[C@@H](NC(=O)OC(C)(C)C)CC5)NC(=O)NC1=O)C2 [Compound 2507] | 1.43 | – | 4160 | – | –
9 | CCNC(=O)OCc1cnc2cc([C@]3(CN4Cc5ccc(OC)cc5C4=O)NC(=O)NC3=O)oc2c1 [Compound 1944] | 0.69 | 2250 | – | – | –
10 | COc1ccc2c(c1)C(=O)N(C[C@@]1(c3cc4cc(C(=NO)N5CCOCC5)ccc4o3)NC(=O)NC1=O)C2 [Compound 2454] | 0.49 | – | 760 | – | –
11 | COc1ccc2c(c1)C(=O)N(C[C@@]1(c3cc4nc(N(CCO)CCN(C)C)ccc4o3)NC(=O)NC1=O)C2 [Compound 1702] | 3.96 | 1770 | – | – | –
12 | COc1ccc2c(c1)C(=O)N(C[C@@]1(c3cc4cc(-c5cn[nH]c5)ccc4o3)NC(=O)NC1=O)C2 [Compound 2201] | 0.345 | – | – | 294 | –
13 | COc1ccc2c(c1)C(=O)N(C[C@@]1(c3cc4ncc(C5=NCCN5)cc4o3)NC(=O)NC1=O)C2 [Compound 1942] | – | 3880 | – | – | 2.09
14 | COc1ccc2c(c1)C(=O)N(C[C@@]1(c3cc4cc(-c5c(C)nn(C)c5C)ccc4o3)NC(=O)NC1=O)C2 [Compound 2213] | 0.403 | – | – | 1510 | –
15 | COc1ccc2c(c1)C(=O)N(C[C@@]1(c3cc4cc(C(=O)NCCN(C)CCNS(C)(=O)=O)c(F)cc4o3)NC(=O)NC1=O)C2 [Compound 1281] | 0.83 | – | – | 1100 | –
16 | COc1ccc2c(c1)C(=O)N(C[C@@]1(c3cc4cnc(NC(C)C)nc4o3)NC(=O)NC1=O)C2 [Compound 2298] | 1.69 | – | ≥ 1000 | – | –
17 | COc1ccc2c(c1)C(=O)N(C[C@@]1(c3cc4nc(N5C(=O)CC[C@@H]5CO)ccc4o3)NC(=O)NC1=O)C2 [Compound 2157] | 0.731 | – | – | 382 | –
18 | COc1ccc2c(c1)C(=O)N(C[C@@]1(c3ccc(-c4ccc(C5(C)NC(=O)NC5=O)nc4)cc3)NC(=O)NC1=O)C2 (stereo partly drawn) [Compound 2206] | 0.82 | – | – | 1780 | –
19 | COc1ccc2c(c1)C(=O)N(C[C@@]1(c3cc4nc(-c5cc(O)cc(-c6ccncc6)c5)ccc4o3)NC(=O)NC1=O)C2 [Compound 1308] | 1.39 | 2950 | – | – | –
20 | COc1ccc2c(c1)C(=O)N(C[C@@]1(c3cc4c(o3)CCN(C(N)=O)C4)NC(=O)NC1=O)C2 [Compound 318] | 5.62 | 646 | – | – | –
21 | COc1ccc2c(c1)C(=O)N(CC1(c3cc4cc(-c5cc(O)[nH]n5)ccc4o3)NC(=O)NC1=O)C2 (stereo not drawn) [Compound 2223] | 1.23 | – | – | 242 | –
22 | COc1ccc2c(c1)C(=O)N(C[C@@]1(c3cc4cc(-c5cc(O)n[nH]5)cnc4o3)NC(=O)NC1=O)C2 [Compound 2275] | 1.08 | – | – | 491 | –
23 | COc1ccc2c(c1)C(=O)N(C[C@@]1(c3cc4cc(CNC(=O)N(C)C)ccc4o3)NC(=O)NC1=O)C2 [Compound 2486] | 0.49 | – | 1230 | – | –
24 | COc1ccc2c(c1)C(=O)N(C[C@@]1(c3cc4cc(C(N)=O)c(C)cc4o3)NC(=O)NC1=O)C2 [Compound 2425] | 0.51 | – | 992 | – | –

Row | SMILES | Ki ([1]; read-out: Ki) [nM] | IC50 [2, 3] [nM] | IC50 [2, 4] [nM] | IC50 [2, 5] [nM] | Ki ([1]; Ki) [nM]
25 | COc1ccc2c(c1)C(=O)N(C[C@@]1(c3cc4cc(C#N)ccc4o3)NC(=O)NC1=O)C2 [Compound 2476] | 0.37 | – | 848 | – | –
26 | COc1ccc2c(c1F)C(=O)N(C[C@@]1(c3cc4cc(F)c(C)nc4o3)NC(=O)NC1=O)C2 [Compound 1313] | 0.83 | 686 | – | – | –
27 | COc1ccc2c(c1)C(=O)N(C[C@@]1(c3ccc(C#N)cc3)NC(=O)NC1=O)C2 [Compound 2477] | 1.41 | – | 3480 | – | –
28 | COc1ccc2c(c1)C(=O)N(C[C@@]1(c3cc4cnc(N)cc4o3)NC(=O)NC1=O)C2 [Compound 2282] | 0.422 | – | 268 | – | –
29 | COc1ccc2c(c1)C(=O)N(C[C@@]1(c3cc4cc(C)c(S(N)(=O)=O)cc4o3)NC(=O)NC1=O)C2 [Compound 2479] | 0.36 | – | 2080 | – | –
30 | COc1ccc2c(c1)C(=O)N(C[C@@]1(c3cc4nc(-c5cnc(N)nc5)ccc4o3)NC(=O)NC1=O)C2 [Compound 1519] | 0.4 | 142 | – | – | –
31 | CCN1CCN(c2ccc3oc([C@]4(CN5Cc6ccc(OC)c(F)c6C5=O)NC(=O)NC4=O)cc3n2)C[C@H]1C [Compound 1293] | 0.79 | – | – | 112 | –
32 | COc1ccc2c(c1)C(=O)N(C[C@@]1(c3cc4ncc(C(N)=O)cc4o3)NC(=O)NC1=O)C2 [Compound 2459] | – | – | 173 | – | 0.367
33 | COc1ccc2c(c1)C(=O)N(C[C@@]1(c3cc4cc(C=O)ccc4o3)NC(=O)NC1=O)C2 [Compound 2451] | 0.41 | – | 987 | – | –
34 | COc1ccc2c(c1F)C(=O)N(C[C@@]1(c3cc4nc(-c5ccnc(N6CCN(C(=O)C(F)(F)F)CC6)c5)ccc4o3)NC(=O)NC1=O)C2 [Compound 1718] | 0.48 | 299 | – | – | –
35 | COc1ccc2c(c1)C(=O)N(C[C@@]1(c3cc4c(N5CCNCC5)nccc4o3)NC(=O)NC1=O)C2 [Compound 2279] | – | – | – | 234 | 2.55
36 | COc1ccc2c(c1)C(=O)N(C[C@@]1(c3cc4nc(N5CCNC(=O)C5)ccc4o3)NC(=O)NC1=O)C2 [Compound 2114] | 0.306 | – | – | 193 | –
37 | COc1ccc2c(c1)C(=O)N(C[C@@]1(c3cc4ncc(C(N)=O)cc4o3)NC(=O)NC1=O)C2 [Compound 1929] | – | 173 | – | – | 0.37
38 | CN(C)C1CCN(c2ccc3oc(C4(CN5Cc6ccc(Cl)cc6C5=O)NC(=O)NC4=O)cc3n2)CC1 (stereo not drawn) [Compound 1291] | 1.33 | – | – | 1400 | –
39 | COc1ccc2c(c1)C(=O)N(C[C@@]1(c3cc4c(s3)CCN(C)C4)NC(=O)NC1=O)C2 [Compound 2265] | 8.77 | – | – | 1440 | –
40 | COc1ccc2c(c1F)C(=O)N(C[C@@]1(c3cc4nc(N(c5cn[nH]c5)C5CCNCC5)ccc4o3)NC(=O)NC1=O)C2 [Compound 1724] | 1.31 | 185 | – | – | –
41 | COc1ccc2c(c1F)C(=O)N(C[C@@]1(c3cc4cc5sc(N)nc5cc4o3)NC(=O)NC1=O)C2 [Compound 1743] | – | 236 | – | – | 0.14
42 | COc1ccc2c(c1)C(=O)N(C[C@@]1(c3cc4cc(-c5ccc(N)nc5)ccc4o3)NC(=O)NC1=O)C2 [Compound 2202] | 0.488 | – | – | 713 | –
43 | COC(=O)c1cnc2cc([C@]3(CN4Cc5ccc(OC)cc5C4=O)NC(=O)NC3=O)oc2c1 [Compound 2458] | 0.518 | – | 841 | – | –
44 | COc1ccc2c(c1)C(=O)N(C[C@@]1(c3cc4nc(-c5ccc(OC)nc5)ccc4o3)NC(=O)NC1=O)C2 [Compound 1518] | 0.9 | 1510 | – | – | –
45 | COc1ccc2c(c1)C(=O)N(C[C@]1(C3=CC(c4ccccc4)N(C)O3)NC(=O)NC1=O)C2 (stereo partly drawn) [Compound 1526] | 2.5 | ≥ 100000 | – | – | –
46 | COc1ccc2c(c1)C(=O)N(C[C@@]1(c3cc4cc(C5CCNCC5)ncc4o3)NC(=O)NC1=O)C2 [Compound 301] | 1.04 | 162 | – | – | –
47 | COc1ccc2c(c1)C(=O)N(C[C@@]1(c3cc4ccc(C(=O)NCCN5CCCC5)cc4o3)NC(=O)NC1=O)C2 [Compound 2418] | 0.76 | – | 265 | – | –
48 | COc1ccc2c(c1)C(=O)N(C[C@@]1(c3cc4nc(-c5cc6ccccc6[nH]5)ccc4o3)NC(=O)NC1=O)C2 [Compound 2149] | 0.286 | – | – | 534 | –
